Laboratory results reported in patent publication US20240246935A1 (Plexium, Inc., priority 2021, published 2024).

What was measured:
[1] = biological target: human E3 ligase component cereblon (CRBN) (Homo sapiens (Human), UniProt Q96SW2); test: Cereblon (CRBN) target engagement, NanoBRET TE Intracellular E3 Ligase Assay in transfected HEK-293T cells; settings: read-out: CRBN Binding EC50
Method in brief: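 Live HEK-293T cells co-transfected overnight with NanoLuc-CRBN (CRBN at NanoLuc C-terminus) and DDB1 vectors (10:990 ng) were given CRBN tracer and an 11-point compound series for 2 h at 37° C. BRET read at 450/610 nm with extracellular NanoLuc inhibitor present; IC50 from four-parameter logistic fit.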

IKZF2 (Helios) = test: IKZF2 reporter degradation assay (HEK 293T IKZF2-mNeonGreen reporter cell line); type: cell-based, human; settings: 1 μM compound, 24 hour incubation, HEK 293T IKZF2-mNeonGreen reporter
Method in brief: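 HEK 293T lines stably expressing each IKZF-GGGGS×3-mNeonGreen-P2A-mScarlet reporter, 4000 cells/well in FluoroBrite medium, treated with compound (≤0.5% DMSO) for 24 h at 37 °C. Imaging measured percent mNeonGreen-positive cells, with mScarlet used for segmentation; DC50 from four-parameter logistic fit.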

Chain of human E3 ligase component cereblon (CRBN) (Q96SW2 whole entry): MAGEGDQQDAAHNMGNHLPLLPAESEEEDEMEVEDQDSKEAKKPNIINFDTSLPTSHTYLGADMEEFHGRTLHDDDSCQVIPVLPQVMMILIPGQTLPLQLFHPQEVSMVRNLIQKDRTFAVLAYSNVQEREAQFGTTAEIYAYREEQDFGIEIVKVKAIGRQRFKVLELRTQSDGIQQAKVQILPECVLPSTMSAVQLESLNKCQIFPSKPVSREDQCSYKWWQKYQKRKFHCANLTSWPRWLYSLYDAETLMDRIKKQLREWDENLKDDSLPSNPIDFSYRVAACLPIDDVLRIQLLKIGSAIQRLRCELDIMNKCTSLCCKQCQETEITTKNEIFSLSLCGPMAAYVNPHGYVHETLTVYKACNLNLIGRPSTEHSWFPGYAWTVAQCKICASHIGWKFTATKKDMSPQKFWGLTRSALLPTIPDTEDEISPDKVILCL
Chain of human E3 ligase component cereblon (CRBN) (Q16531 whole entry partner): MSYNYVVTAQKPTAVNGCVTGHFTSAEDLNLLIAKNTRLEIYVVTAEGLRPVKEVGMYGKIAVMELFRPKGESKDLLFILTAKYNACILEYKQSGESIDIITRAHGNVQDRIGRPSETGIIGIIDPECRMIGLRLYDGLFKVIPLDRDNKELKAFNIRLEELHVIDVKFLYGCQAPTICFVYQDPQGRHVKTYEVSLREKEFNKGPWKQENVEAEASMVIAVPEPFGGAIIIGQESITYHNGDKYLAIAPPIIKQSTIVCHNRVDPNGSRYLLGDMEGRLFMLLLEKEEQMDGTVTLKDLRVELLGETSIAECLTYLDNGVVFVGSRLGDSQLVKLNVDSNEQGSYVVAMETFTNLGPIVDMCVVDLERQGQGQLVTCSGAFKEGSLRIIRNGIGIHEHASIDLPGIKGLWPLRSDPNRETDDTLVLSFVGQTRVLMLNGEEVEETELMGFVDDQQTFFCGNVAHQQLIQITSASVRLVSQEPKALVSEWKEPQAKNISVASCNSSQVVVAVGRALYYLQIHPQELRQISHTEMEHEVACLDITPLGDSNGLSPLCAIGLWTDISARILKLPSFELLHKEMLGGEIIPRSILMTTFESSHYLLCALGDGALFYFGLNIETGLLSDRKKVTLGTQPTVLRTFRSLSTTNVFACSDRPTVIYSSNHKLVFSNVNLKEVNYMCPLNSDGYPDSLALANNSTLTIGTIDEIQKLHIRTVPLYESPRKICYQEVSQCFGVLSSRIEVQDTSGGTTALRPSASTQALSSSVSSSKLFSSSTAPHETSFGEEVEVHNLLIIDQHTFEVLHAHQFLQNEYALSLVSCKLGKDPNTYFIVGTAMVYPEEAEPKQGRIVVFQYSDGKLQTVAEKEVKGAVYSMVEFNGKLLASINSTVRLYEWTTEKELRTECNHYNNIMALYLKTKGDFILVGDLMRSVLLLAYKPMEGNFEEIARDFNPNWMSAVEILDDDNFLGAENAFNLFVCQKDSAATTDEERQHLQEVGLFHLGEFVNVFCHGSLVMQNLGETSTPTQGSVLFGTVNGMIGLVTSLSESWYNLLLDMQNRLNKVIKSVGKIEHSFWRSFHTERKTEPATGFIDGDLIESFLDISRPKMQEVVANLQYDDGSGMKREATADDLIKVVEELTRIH

| EC50 [1] | Compound | IKZF2 % Degradation @ 1 μM (IKZF2 (Helios)) |
| --- | --- | --- |
| 11 nM | N#Cc1cc(Cl)ccc1C1CN([C@H]2CCCC[C@H]2Oc2ccc3c(c2)CN(C2CCC(=O)NC2=O)C3=O)C1 (stereo partly drawn) [Compound 40, 5-chloro-2-(1-((1S,2R)-2-((2-(2,6-dioxopiperidin-3-yl)-1-oxoisoindolin-5-yl)oxy)cyclohexyl)azetidin-3-yl)benzonitrile] | <15% |
| 22 nM | N#Cc1cc(F)ccc1C1CN([C@H]2CCCC[C@H]2Oc2ccc3c(c2)CN(C2CCC(=O)NC2=O)C3=O)C1 (stereo partly drawn) [Compound 46, 2-(1-((1S,2R)-2-((2-(2,6-dioxopiperidin-3-yl)-1-oxoisoindolin-5-yl)oxy)cyclohexyl)azetidin-3-yl)-5-fluorobenzonitrile] | <15% |
| 11 nM | N#Cc1ccc(C2CN([C@H]3CCCC[C@H]3Oc3ccc4c(c3)CN(C3CCC(=O)NC3=O)C4=O)C2)c(Cl)c1 (stereo partly drawn) [Compound 49, 3-chloro-4-(1-((1S,2R)-2-((2-(2,6-dioxopiperidin-3-yl)-1-oxoisoindolin-5-yl)oxy)cyclohexyl)azetidin-3-yl)benzonitrile] | <15% |
| 89 nM | O=C1CCC(N2Cc3cc(O[C@@H]4CCCC[C@H]4N4CCC4c4ccccc4)ccc3C2=O)C(=O)N1 (stereo partly drawn) [Compound 54, 3-(1-oxo-5-(((1R,2R)-2-(2-phenylazetidin-1-yl)cyclohexyl)oxy)isoindolin-2-yl)piperidine-2,6-dione] | <15% |
| 158 nM | O=C1CCC(N2Cc3cc(O[C@H]4CCCC[C@@H]4N4CCC4c4ccccc4)ccc3C2=O)C(=O)N1 (stereo partly drawn) [Compound 55, 3-(1-oxo-5-(((1S,2S)-2-(2-phenylazetidin-1-yl)cyclohexyl)oxy)isoindolin-2-yl)piperidine-2,6-dione] | 38.1% |
| 239 nM | O=C1CCC(N2Cc3cc(O[C@H]4CCCC[C@H]4N4CCC4c4ccccc4)ccc3C2=O)C(=O)N1 (stereo partly drawn) [Compound 56, 3-(1-oxo-5-(((1S,2R)-2-(2-phenylazetidin-1-yl)cyclohexyl)oxy)isoindolin-2-yl)piperidine-2,6-dione] | <15% |
| 6 nM | O=C1CCC(N2Cc3cc(O[C@H]4CCCC[C@@H]4N4CC(c5ccc(F)cc5F)C4)ccc3C2=O)C(=O)N1 (stereo partly drawn) [Compound 57, 3-(5-(((1S,2S)-2-(3-(2,4-difluorophenyl)azetidin-1-yl)cyclohexyl)oxy)-1-oxoisoindolin-2-yl)piperidine-2,6-dione] | 85.8% |
| 71 nM | O=C1CCC(N2Cc3cc(O[C@H]4CCCC[C@@H]4N4CC(c5ccc(C(F)(F)F)cc5)C4)ccc3C2=O)C(=O)N1 (stereo partly drawn) [Compound 58, 3-(1-oxo-5-(((1S,2S)-2-(3-(4-(trifluoromethyl)phenyl)azetidin-1-yl)cyclohexyl)oxy)isoindolin-2-yl)piperidine-2,6-dione] | 85.8% |
| 11 nM | O=C1CCC(N2Cc3cc(O[C@@H]4CCCC[C@@H]4N4CC(c5ccc(C(F)(F)F)cc5)C4)ccc3C2=O)C(=O)N1 (stereo partly drawn) [Compound 59, 3-(1-oxo-5-(((1R,2S)-2-(3-(4-(trifluoromethyl)phenyl)azetidin-1-yl)cyclohexyl)oxy)isoindolin-2-yl)piperidine-2,6-dione] | 32.7% |
| 17 nM | O=C1CCC(N2Cc3cc(OC4CCCCC4N4CC(c5cccc(OC(F)(F)F)c5)C4)ccc3C2=O)C(=O)N1 (stereo not drawn) [Compound 67, 3-(1-oxo-5-((2-(3-(3-(trifluoromethoxy)phenyl)azetidin-1-yl)cyclohexyl)oxy)isoindolin-2-yl)piperidine-2,6-dione] | 37.8% |
| 26 nM | O=C1CCC(N2Cc3cc(OC4CCCCC4N4CC(c5ccccc5OC(F)(F)F)C4)ccc3C2=O)C(=O)N1 (stereo not drawn) [Compound 68, 3-(1-oxo-5-((2-(3-(2-(trifluoromethoxy)phenyl)azetidin-1-yl)cyclohexyl)oxy)isoindolin-2-yl)piperidine-2,6-dione] | 42.5% |
| 25 nM | O=C1CCC(N2Cc3cc(OC4CCCCC4N4CC(c5ccccc5C(F)(F)F)C4)ccc3C2=O)C(=O)N1 (stereo not drawn) [Compound 69, 3-(1-oxo-5-((2-(3-(2-(trifluoromethyl)phenyl)azetidin-1-yl)cyclohexyl)oxy)isoindolin-2-yl)piperidine-2,6-dione] | <15% |
| 7 nM | O=C1CCC(N2Cc3cc(O[C@H]4CCC[C@@H]4N4CCC(c5ccccc5)CC4)ccc3C2=O)C(=O)N1 (stereo partly drawn) [Compound 72, 3-(1-oxo-5-(((1S,2S)-2-(4-phenylpiperidin-1-yl)cyclopentyl)oxy)isoindolin-2-yl)piperidine-2,6-dione] | 38.2% |
| 5 nM | O=C1CCC(N2Cc3cc(O[C@H]4CCC[C@@H]4N4CC(c5ccc(-n6cccn6)cc5)C4)ccc3C2=O)C(=O)N1 (stereo partly drawn) [Compound 73, 3-(5-(((1S,2S)-2-(3-(4-(1H-pyrazol-1-yl)phenyl)azetidin-1-yl)cyclopentyl)oxy)-1-oxoisoindolin-2-yl)piperidine-2,6-dione] | 63.6% |
| 12 nM | O=C1CCC(N2Cc3cc(O[C@H]4CCCC[C@@H]4N4CCC(c5ccccc5)CC4)ccc3C2=O)C(=O)N1 (stereo partly drawn) [Compound 79, 3-(1-oxo-5-(((1S,2S)-2-(4-phenylpiperidin-1-yl)cyclohexyl)oxy)isoindolin-2-yl)piperidine-2,6-dione] | <15% |
| 8 nM | O=C1CCC(N2Cc3cc(O[C@H]4CCCC[C@@H]4N4CC(c5cccc(OC(F)F)c5)C4)ccc3C2=O)C(=O)N1 (stereo partly drawn) [Compound 80, 3-(5-(((1S,2S)-2-(3-(3-(difluoromethoxy)phenyl)azetidin-1-yl)cyclohexyl)oxy)-1-oxoisoindolin-2-yl)piperidine-2,6-dione] | 76.7% |
| 9 nM | O=C1CCC(N2Cc3cc(O[C@H]4CCCC[C@@H]4N4CC(c5ccc(OC(F)F)cc5)C4)ccc3C2=O)C(=O)N1 (stereo partly drawn) [Compound 81, 3-(5-(((1S,2S)-2-(3-(4-(difluoromethoxy)phenyl)azetidin-1-yl)cyclohexyl)oxy)-1-oxoisoindolin-2-yl)piperidine-2,6-dione] | 77.6% |
| 32 nM | N#Cc1ccc(C2CN(C3CCCC3Oc3ccc4c(c3)CN(C3CCC(=O)NC3=O)C4=O)C2)cc1 (stereo not drawn) [Compound 98, 4-(1-(2-((2-(2,6-dioxopiperidin-3-yl)-1-oxoisoindolin-5-yl)oxy)cyclopentyl)azetidin-3-yl)benzonitrile] | <15% |
| 19 nM | N#Cc1ccc(C2CN(C3CCCC3Oc3ccc4c(c3)CN(C3CCC(=O)NC3=O)C4=O)C2)cc1F (stereo not drawn) [Compound 110, 4-(1-(2-((2-(2,6-dioxopiperidin-3-yl)-1-oxoisoindolin-5-yl)oxy)cyclopentyl)azetidin-3-yl)-2-fluorobenzonitrile] | 48.8% |
| 25 nM | O=C1CCC(N2Cc3cc(O[C@H]4CCCC[C@@H]4N4CC(c5cccc(N6CCOCC6)c5)C4)ccc3C2=O)C(=O)N1 (stereo partly drawn) [Compound 112, 3-(5-(((1S,2S)-2-(3-(3-morpholinophenyl)azetidin-1-yl)cyclohexyl)oxy)-1-oxoisoindolin-2-yl)piperidine-2,6-dione] | 72.6% |
| 13 nM | N#Cc1cccc(C2CN([C@H]3CCCC[C@@H]3Oc3ccc4c(c3)CN(C3CCC(=O)NC3=O)C4=O)C2)c1 (stereo partly drawn) [Compound 113, 3-(1-((1S,2S)-2-((2-(2,6-dioxopiperidin-3-yl)-1-oxoisoindolin-5-yl)oxy)cyclohexyl)azetidin-3-yl)benzonitrile] | 73.7% |
| 31 nM | N#Cc1ccc(C2CN(C3CCCCC3Oc3ccc4c(c3)CN(C3CCC(=O)NC3=O)C4=O)C2)cc1 (stereo not drawn) [Compound 117, 4-(1-(2-((2-(2,6-dioxopiperidin-3-yl)-1-oxoisoindolin-5-yl)oxy)cyclohexyl)azetidin-3-yl)benzonitrile] | <15% |
| 36 nM | O=C1CCC(N2Cc3cc(OC4CCCCC4N4CC(c5ccccc5)C4)ccc3C2=O)C(=O)N1 (stereo not drawn) [Compound 118, 3-(1-oxo-5-((2-(3-phenylazetidin-1-yl)cyclohexyl)oxy)isoindolin-2-yl)piperidine-2,6-dione] | <15% |
| 11 nM | O=C1CCC(N2Cc3cc(O[C@H]4CCC[C@@H]4N4CC(c5ccccc5)C4)ccc3C2=O)C(=O)N1 (stereo partly drawn) [Compound 120, 3-(1-oxo-5-(((1S,2S)-2-(3-phenylazetidin-1-yl)cyclopentyl)oxy)isoindolin-2-yl)piperidine-2,6-dione] | 78.8% |
| 6 nM | O=C1CCC(N2Cc3cc(O[C@H]4CCC[C@@H]4N4CCC(c5ccccc5)C4)ccc3C2=O)C(=O)N1 (stereo partly drawn) [Compound 121, 3-(1-oxo-5-(((1S,2S)-2-(3-phenylpyrrolidin-1-yl)cyclopentyl)oxy)isoindolin-2-yl)piperidine-2,6-dione] | 75.9% |
| 11 nM | O=C1CCC(N2Cc3cc(O[C@H]4CCCC[C@@H]4N4CC(c5ccc(F)cc5)C4)ccc3C2=O)C(=O)N1 (stereo partly drawn) [Compound 123, 3-(5-(((1S,2S)-2-(3-(4-fluorophenyl)azetidin-1-yl)cyclohexyl)oxy)-1-oxoisoindolin-2-yl)piperidine-2,6-dione] | 74.4% |
| 5 nM | COc1cccc(C2CN([C@H]3CCCC[C@@H]3Oc3ccc4c(c3)CN(C3CCC(=O)NC3=O)C4=O)C2)c1 (stereo partly drawn) [Compound 126, 3-(5-(((1S,2S)-2-(3-(3-methoxyphenyl)azetidin-1-yl)cyclohexyl)oxy)-1-oxoisoindolin-2-yl)piperidine-2,6-dione] | 84.3% |
